One data set relates to E. coli ATCC25922. In kind it is cell-based, Escherichia coli. From the text:
(§1) L. monocytogenes ATCCbaa751 and E. coli ATCC25922, were obtained from the American Type Culture Collection (ATCC; Rockville, MD, USA). NovaPEG Rink Amida resin, Fmoc-protected amino acids, 2-(1H-benzotriazole-1-yl)-1,1,3,3-tetramethyluronium tetrafluoro-borate (TBTU), Piperidine, N,N-Diisopropylethylamine (DIEA), Ninhydrin, Dimethylformamide (DMF), Trifluoroacetic acid (TFA), 1,2-Ethanedithiol (EDT), Triisopropylsilane (TIS) and Mueller Hinton Broth (MHB) were purchased in Merck (Darmstadt, Germany). Cholesterol, Epikuron 200® and dioleoyl-phosphatidyl-ethanolamine (DOPE) were obtained from Avanti Polar Lipids (Alabaster, Alabama, USA). Eudragit® E-100 was purchased in Evonik (Darmstadt, Germany). Ampicillin (Fersinsa Gb) was supplied by Tecnoquímicas S.A. (Cali, Colombia) and Gentamicin solution (GENFAR®, Cali, Colombia) was purchased from a local pharmacy. The datasets used and materials using during this study are available from the corresponding author on reasonable request.
(§2) Microbial susceptibility tests were performed according to clinical and laboratory standards institute (CLSI) standard methods. Bacteria were inoculated in MHB and incubated overnight at 37 °C. […] After incubation, the minimum inhibitory concentration (MIC) was determined by visual analysis.

The test system of data set [1] is L. monocytogenes ATCCbaa751. In kind it is cell-based, Listeria monocytogenes.
Source text: as §1, §2

A short description of data set [2]: Surface tension (pendant drop) and aggregation index (dual-angle DLS) of peptides in aqueous media. To be noted: PBS pH 7.2, 138 mM NaCl; peptide 0–50 µM; pendant drop and dual-angle DLS (173° and 13°); triplicate. In kind it is physicochemical. On the procedure:
Surface tension measurements of the peptides were carried out using a contact angle meter (OCA15EC Dataphysics Instruments, Filderstadt, Germany) with a software driver (version 4.5.14 SCA22), where the data capture was recorded using an IDS video camera. For this, the pendant-drop method was performed in triplicate, where peptide concentrations between 0 and 50 µM were prepared with ultrapure water and phosphate buffer saline pH 7.2 (PBS, 138 mM NaCl, 3 mM KCl, 1.5 mM NaH2PO4, 8.1 mM Na2HPO4). The samples of peptides +2 and +5 were prepared in serial concentrations between 0 and 50 µM in PBS buffer pH 7.2 at 138 mM of ionic strength. An aliquot was analysed immediately after preparation. Dual angle DLS measurements (173° and 13°) of automatic duration were carried out using a Zetasizer Nano ZSP (Malvern Instruments, Worcestershire, United Kingdom). The Aggregation Index is a parameter based on the mean z-average size measured for the two angles of scattering according to the equation: (1) Aggregation index=[Zfwd/Zbkd−1] where, Zfwd is the average particle size detected by forward scatter optics at 13°. Trace amounts of aggregate are often highly useful for the enhanced detection of large protein aggregates, whereas Zbkd is the particle size average at a detection angle of 173° (non-invasive back-scatter).

The next data set relates to E. coli. To be noted: cited from earlier work. From the text: (§3) Alyteserin-1c is an AMP comprising a 23 amino acid residue (net charge: +2) and was first isolated from norepinephrine-stimulated skin secretions from the midwife toad Alytes obstetricans. […] Although AMPs are an alternative means for eliminating bacteria in foods, due to their biocompatibility, biodegradability, broad spectrum of activity and potent bactericidal properties, most ...

A further data set concerns human erythrocytes. The conditions noted are these: cited from earlier work.
Source text: as §3

Where no end group is shown, it is not given here.

“GLKEIFKAGLGSLVKGIAAHVAS [peptide +2, Alyteserin-1c]”: the MIC against E. coli ATCC25922 was 15.2 µM; in data set [1], 125 µM; with E. coli, 25 µM. Moreover, in data set [2], the “concentration at which changes in surface tension and aggregation index are achieved” value came out at 20 µM. The hemolytic activity result in the data set on human erythrocytes is “low hemolytic activity”.
Regarding GLKRIFKSGLGKLVKGISAHVAS [peptide +5], the minimal inhibitory concentration (MIC) (in the data set on E. coli ATCC25922; in data set [1]) was 62.5 µM each time. Besides, the “concentration at which changes in surface tension and aggregation index are achieved” value in data set [2] fell in the range of 5 to 10 µM.

Values taken from article PMC6386929, “Evaluation of the Antimicrobial Activity of Cationic Peptides Loaded in Surface-Modified Nanoliposomes against Foodborne Bacteria” (International Journal of Molecular Sciences, 2019).
